pKi: −log10 of the molar value.
Assays:
CDK2/cyclin A = molecular target: T1, CDK2/cyclin A (Homo sapiens, UniProt P24941); test: Inhibition of CDK2/cyclin A retinoblastoma kinase activity (Ki; % inhibition); format: biochemical; conditions: for pKi: apparent Ki, CDK2/cyclin A, Rb substrate
T1 construct: made in house; host or cells: CDK2: insect cells (baculovirus); cyclin A: E. coli
Experimental: (§1) Cyclin-dependent kinase activity was measured by quantifying the enzyme-catalyzed, time-dependent incorporation of radioactive phosphate from [^32P]ATP or [^33P]ATP into a protein substrate. Unless noted otherwise, assays were performed in 96-well plates in a total volume of 50 μL, in the presence of 10 mM HEPES (N-[2-hydroxyethyl]piperazine-N′-[2-ethanesulfonic acid]) (pH 7.4), 10 mM MgCl2, 25 μM adenosine triphosphate (ATP), 1 mg/mL ovalbumin, 5 μg/mL leupeptin, 1 mM dithiothreitol, 10 mM β-glycerophosphate, 0.1 mM sodium vanadate, 1 mM sodium fluoride, 2.5 mM ethylene glycol-bis(β-aminoethyl ether)-N,N,N′N′-tetraacetic acid (EGTA), 2% (v/v) dimethylsulfoxide, and 0.03-0.4 μCi [^32/33P]ATP per reaction. Reactions were initiated with enzyme, incubated at 30° C., and terminated after 20 minutes by the addition of ethylenediaminetetraacetic acid (EDTA) to 250 mM. The phosphorylated substrate was then captured on a nitrocellulose or phosphocellulose membrane using a 96-well filtration manifold, and unincorporated radioactivity was removed by repeated washing with 0.85% phosphoric acid. Radioactivity was quantified by exposing the dried membranes to a phosphorimager.
(§2) Compounds from combinatorial libraries were screened from 96-well plates for % inhibition of CDK activity at 30 nM theoretical compound concentration. Inhibition was measured relative to control wells that contained all reaction components including 2% (v/v) DMSO but no compound, after subtraction of background radioactivity measured in the absence of enzyme. Apparent Ki values of discrete compounds were measured by assaying enzyme activity in the presence of different inhibitor compound concentrations and subtracting the background radioactivity measured in the absence of enzyme. The kinetic parameters (kcat, Km for ATP) were measured for each enzyme under the usual assay conditions by determining the dependence of initial rates on ATP concentration. Inhibition data were fit to an equation for competitive inhibition using Kaleidagraph (Synergy Software), or were fit to an equation for competitive tight-binding inhibition using the software KineTic (BioKin, Ltd.).
CDK2 was purified using published methodology (Rosenblatt et al., “Purification and Crystallization of Human Cyclin-dependent Kinase 2,” J. Mol. Biol., 230, 1993, pp. 1317-1319) from insect cells that had been infected with a baculovirus expression vector. […] A complex of CDK2 and proteolyzed cyclin A was prepared and purified by gel filtration. The substrate for this assay was the same Rb substrate fragment used for the CDK4 assays, and the methodology of the CDK2/delta cyclin A and the CDK4/delta cyclin D3 assays was essentially the same, except that CDK2 was present at 10 nM or 19 nM. The duration of the assay was 60 or 75 minutes, during which the time-dependence of product formation was linear and initial rate conditions were met.

human CDK4/cyclin D3 = molecular target: T2, human CDK4/cyclin D3 (Homo sapiens, UniProt P11802); test: Inhibition of CDK4/cyclin D retinoblastoma kinase activity (Ki; % inhibition); format: biochemical; conditions: for pKi: apparent Ki, CDK4/cyclin D3, Rb substrate
T2 construct: made in house; host or cells: insect cells co-infected with baculovirus vectors
Experimental: as §1, §2
A complex of human CDK4 and genetically truncated (1-264) cyclin D3 was purified using traditional biochemical chromatographic techniques from insect cells that had been co-infected with the corresponding baculovirus expression vectors (see e.g., Meijer and Kim, “Chemical Inhibitors of Cyclin-Dependent Kinases,” Methods in Enzymol., 283 (1997), pp. 113-128.). The enzyme complex (5 nM) was assayed with 0.3-0.5 μg of purified recombinant retinoblastoma protein fragment (Rb) as a substrate. The engineered Rb fragment (residues 386-928 of the native retinoblastoma protein; 62.3 kDa) contains the majority of the phosphorylation sites found in the native 106-kDa protein, as well as a tag of six histidine residues for ease of purification. Phosphorylated Rb substrate was captured by microfiltration on a nitrocellulose membrane and quantified using a phosphorimager as described above. For measurement of tight-binding inhibitors, the assay duration was extended to 60 minutes, during which the time-dependence of product formation was linear and initial rate conditions were met.

HCT-116 cell line = test: Inhibition of cell growth, MTT tetrazolium salt assay; format: cell-based
Experimental: Inhibition of cell growth was measured using the tetrazolium salt assay, which is based on the ability of viable cells to reduce 3-(4,5-dimethylthiazol-2-yl)-2,5-[2H]-diphenyltetrazolium bromide (MTT) to formazan (Mossman, Journal of Immunological Methods, 65, (1983), pp. 55-58). The water-insoluble purple formazan product was then detected spectrophotometrically. The HCT-116 cell line was used as a representative cancer cell line and grown in 96-well plates. Cells were plated in McCoy's 5A Medium at a volume of 135 μl/well. Plates were incubated for four hours before addition of inhibitor compounds. Different concentrations of inhibitor compounds were added in 0.5% (v/v) dimethylsulfoxide (15 μL/well), and cells were incubated at 37° C. (5% CO2) for three to five days. At the end of the incubation, MTT was added to a final concentration of 0.2 mg/mL, and cells were incubated for 4 hours more at 37° C. After centrifugation of the plates and removal of medium, the absorbance of the formazan (solubilized in dimethylsulfoxide) was measured at 540 nm. The concentration of inhibitor compound causing 50% (IC50) or 90% ([…]) inhibition of growth was determined from the linear portion of a semi-log plot of inhibitor concentration versus percent inhibition. All results were compared to control cells treated only with 0.5% (v/v) dimethylsulfoxide.

[1] = HCT-116 cells, 0.25 μM compound

T2 sequence (P11802 whole entry): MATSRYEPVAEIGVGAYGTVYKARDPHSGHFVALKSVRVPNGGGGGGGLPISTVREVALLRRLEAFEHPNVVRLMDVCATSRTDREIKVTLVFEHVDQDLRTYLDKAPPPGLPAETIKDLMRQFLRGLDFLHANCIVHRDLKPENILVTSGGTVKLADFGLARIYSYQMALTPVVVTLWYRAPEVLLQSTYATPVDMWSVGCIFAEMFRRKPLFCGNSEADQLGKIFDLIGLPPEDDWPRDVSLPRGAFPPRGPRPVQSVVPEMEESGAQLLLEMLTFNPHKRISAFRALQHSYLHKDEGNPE
T2 sequence (P30281 1-264 partner limits assumed): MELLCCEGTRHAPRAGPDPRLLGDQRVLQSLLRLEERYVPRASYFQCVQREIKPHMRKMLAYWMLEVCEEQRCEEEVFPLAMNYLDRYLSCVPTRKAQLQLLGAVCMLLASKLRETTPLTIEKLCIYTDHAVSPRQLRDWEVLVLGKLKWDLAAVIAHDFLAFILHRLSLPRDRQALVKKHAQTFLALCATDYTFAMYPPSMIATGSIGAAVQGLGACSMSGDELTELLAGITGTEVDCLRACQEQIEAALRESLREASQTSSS

| CDK2 % Inhibition at 0.03 μM (CDK2/cyclin A; at 0.03 μM) | CDK4 % Inhibition at 0.03 μM (human CDK4/cyclin D3; at 0.03 μM) | CDK2 % Inhibition at 0.03 μM (CDK2/cyclin A; 0.03 μM compound) | CDK4 % Inhibition at 0.03 μM (human CDK4/cyclin D3; 0.03 μM compound) | pKi (CDK2/cyclin A) | pKi (human CDK4/cyclin D3) | SMILES | HCT-116 % Inhibition at 0.25 μM (HCT-116 cell line; HCT-116, at 0.25 μM) | HCT-116 % Inhibition at 0.1 μM (HCT-116 cell line; HCT-116 cells, 0.1 μM compound) | HCT-116 % Inhibition at 0.25 μM (HCT-116 cell line; [1]) | HCT-116 % Inhibition at 0.1 μM (HCT-116 cell line; HCT-116, at 0.1 μM) |
| --- | --- | --- | --- | --- | --- | --- | --- | --- | --- | --- |
| −16% | 10% |  |  |  |  | CCN(CCO)C(=O)c1ccc(Nc2nc(N)c(C(=O)c3c(F)cccc3F)s2)cc1 [Example G25] | 52% |  |  |  |
|  |  | 26% | 8% |  |  | Nc1nc(Nc2ccc(C(=O)Nc3cccc(-c4nnco4)c3)cc2)sc1C(=O)c1c(F)cccc1F [Example G369] |  | 21% | 36% |  |
|  |  | 22% | 17% |  |  | CN(CCC(O)c1ccccc1)C(=O)c1ccc(Nc2nc(N)c(C(=O)c3c(F)cccc3F)s2)cc1 (stereo not shown) [Example G370] |  | 19% | 52% |  |
| 19% | 18% |  |  |  |  | CC(=O)NC1CCN(C(=O)c2ccc(Nc3nc(N)c(C(=O)c4c(F)cccc4F)s3)cc2)C1 (stereo not shown) [Example G73] | 56% |  |  |  |
|  |  | −8% | 7% |  |  | Nc1nc(Nc2ccc(C(=O)Nc3cccc(Br)c3)cc2)sc1C(=O)c1c(F)cccc1F [Example G287] |  | 9% | 32% |  |
| 2% | 10% |  |  |  |  | Nc1nc(Nc2ccc(C(=O)N3CCc4ccccc4C3)cc2)sc1C(=O)c1c(F)cccc1F [Example G79] | 51% |  |  |  |
|  |  | −19% | 7% |  |  | CCOc1ccccc1CCNC(=O)c1ccc(Nc2nc(N)c(C(=O)c3c(F)cccc3F)s2)cc1 [Example G380] |  | 26% | 50% |  |
|  |  | −11% | 10% |  |  | Nc1nc(Nc2ccc(C(=O)Nc3ccc(Cl)cc3CO)cc2)sc1C(=O)c1c(F)cccc1F [Example G341] |  | 23% | 93% |  |
|  |  | 38% | 15% |  |  | Nc1nc(Nc2ccc(C(=O)NCC3COc4ccccc4O3)cc2)sc1C(=O)c1c(F)cccc1F (stereo not shown) [Example G367] |  | 22% | 71% |  |
| 13% | 19% |  |  |  |  | COCCNC(=O)c1ccc(Nc2nc(N)c(C(=O)c3c(F)cccc3F)s2)cc1 [Example G164] | 59% |  |  | 0% |
| 6% | 5% |  |  |  |  | CCC(COC)NC(=O)c1ccc(Nc2nc(N)c(C(=O)c3c(F)cccc3F)s2)cc1 (stereo not shown) [Example G159] | 74% |  |  | 0% |
| 19% | 26% |  |  |  |  | COc1cccc(CCNC(=O)c2ccc(Nc3nc(N)c(C(=O)c4c(F)cccc4F)s3)cc2)c1 [Example G193] | 56% |  |  | 17% |
| 2% | 25% |  |  |  |  | CC(C)OCCCNC(=O)c1ccc(Nc2nc(N)c(C(=O)c3c(F)cccc3F)s2)cc1 [Example G135] | 56% |  |  | 0% |
| 8% | 14% |  |  |  |  | Nc1nc(Nc2ccc(C(=O)NCC(O)c3ccccc3)cc2)sc1C(=O)c1c(F)cccc1F (stereo not shown) [Example G104] | 91% |  |  | 38% |
|  |  | 36% | 41% |  |  | CN(CC(O)c1ccccc1)C(=O)c1ccc(Nc2nc(N)c(C(=O)c3c(F)cccc3F)s2)cc1 (stereo not shown) [Example G225] |  | 0% | 51% |  |
|  |  | −1% | 11% |  |  | Cc1cccc(CN(C)C(=O)c2ccc(Nc3nc(N)c(C(=O)c4c(F)cccc4F)s3)cc2)n1 [Example G315] |  | 7% | 50% |  |
| 10% | 34% |  |  |  |  | CCN1CCCC1CNC(=O)c1ccc(Nc2nc(N)c(C(=O)c3c(F)cccc3F)s2)cc1 (stereo not shown) [Example G154] | 91% |  |  | 17% |
| 19% | 29% |  |  |  |  | C[C@H](NC(=O)c1ccc(Nc2nc(N)c(C(=O)c3c(F)cccc3F)s2)cc1)c1ccccc1 [Example G167] | 53% |  |  | 26% |
| 7% | 20% |  |  |  |  | COc1ccccc1CCNC(=O)c1ccc(Nc2nc(N)c(C(=O)c3c(F)cccc3F)s2)cc1 [Example G185] | 49% |  |  | 10% |
|  |  | −1% | 46% |  |  | Nc1nc(Nc2ccc(C(=O)N3CCN(c4ccncc4)CC3)cc2)sc1C(=O)c1c(F)cccc1F [Example G311] |  | 5% | 43% |  |
|  |  |  |  | 7.18 | 7.39 | Nc1nc(Nc2ccc(C(=O)Nc3cccnc3)cc2)sc1C(=O)c1c(F)cccc1F [Example A27, 4-[4-Amino-5-(2,6-difluoro-benzoyl)-thiazol-2-ylamino]-N-(pyridin-3-yl)-benzamide] |  |  |  |  |
|  |  |  |  | 6.40 | 6.62 | CN(C)CCN1C(=O)c2ccc(Nc3nc(N)c(C(=O)c4c(F)cccc4F)s3)cc2C1=O [E, 5-[4-Amino-5-(2,6-difluoro-benzoyl)-thiazol-2-ylamino]-2-(2-dimethylamino-ethyl)-isoindole-1,3-dione] |  |  |  |  |
|  |  |  |  | 5.47 | 6.00 | CN(C)CCNC(=O)c1ccc(Nc2nc(N)c(C(=O)C34CC5CC(CC(C5)C3)C4)s2)cc1 [Example A58, 4-[5-(1-Adamantan-1-yl-methanoyl)-4-amino-thiazol-2-ylamino]-N-(2-dimethylamino-ethyl)-benzamide] |  |  |  |  |
|  |  |  |  | 6.82 | 7.23 | Nc1nc(Nc2ccc(C(=O)NCCOCCO)cc2)sc1C(=O)c1c(Cl)cccc1Cl [Example B5, 4-[4-Amino-5-(2,6-dichloro-benzoyl)-thiazol-2-ylamino]-N-[2-(2-hydroxy-ethoxy)-ethyl]-benzamide] |  |  |  |  |

| SMILES | CDK2 % Inhibition at 0.03 μM (CDK2/cyclin A; at 0.03 μM) | CDK4 % Inhibition at 0.03 μM (human CDK4/cyclin D3; at 0.03 μM) | CDK2 % Inhibition at 0.03 μM (CDK2/cyclin A; 0.03 μM compound) | CDK4 % Inhibition at 0.03 μM (human CDK4/cyclin D3; 0.03 μM compound) | pKi (CDK2/cyclin A) | pKi (human CDK4/cyclin D3) | HCT-116 % Inhibition at 0.25 μM (HCT-116 cell line; HCT-116, at 0.25 μM) | HCT-116 % Inhibition at 0.1 μM (HCT-116 cell line; HCT-116 cells, 0.1 μM compound) | HCT-116 % Inhibition at 0.25 μM (HCT-116 cell line; [1]) | HCT-116 % Inhibition at 0.1 μM (HCT-116 cell line; HCT-116, at 0.1 μM) |
| --- | --- | --- | --- | --- | --- | --- | --- | --- | --- | --- |
| Nc1nc(Nc2ccc(C(=O)N3CCC4(CC3)OCCO4)cc2)sc1C(=O)c1c(F)cccc1F [Example G34] | 8% | 9% |  |  |  |  | 53% |  |  |  |

Source: patent publication US6720346B2, “Thiazole benzamide derivatives and pharmaceutical compositions for inhibiting cell proliferation” (Agouron Pharmaceuticals, Inc., priority 2001, dated 2004)
